Target: T1, DcDop2 (Diaphorina citri, UniProt A0A3Q0INR4)
T1 construct: gene LOC103507230; full ORF (2049 nt, 682 residues) in pcDNA3.1, transiently expressed in CHO-WTA11 cells (Galpha16 and aequorin)
T1 sequence (A0A3Q0INR4 1-682): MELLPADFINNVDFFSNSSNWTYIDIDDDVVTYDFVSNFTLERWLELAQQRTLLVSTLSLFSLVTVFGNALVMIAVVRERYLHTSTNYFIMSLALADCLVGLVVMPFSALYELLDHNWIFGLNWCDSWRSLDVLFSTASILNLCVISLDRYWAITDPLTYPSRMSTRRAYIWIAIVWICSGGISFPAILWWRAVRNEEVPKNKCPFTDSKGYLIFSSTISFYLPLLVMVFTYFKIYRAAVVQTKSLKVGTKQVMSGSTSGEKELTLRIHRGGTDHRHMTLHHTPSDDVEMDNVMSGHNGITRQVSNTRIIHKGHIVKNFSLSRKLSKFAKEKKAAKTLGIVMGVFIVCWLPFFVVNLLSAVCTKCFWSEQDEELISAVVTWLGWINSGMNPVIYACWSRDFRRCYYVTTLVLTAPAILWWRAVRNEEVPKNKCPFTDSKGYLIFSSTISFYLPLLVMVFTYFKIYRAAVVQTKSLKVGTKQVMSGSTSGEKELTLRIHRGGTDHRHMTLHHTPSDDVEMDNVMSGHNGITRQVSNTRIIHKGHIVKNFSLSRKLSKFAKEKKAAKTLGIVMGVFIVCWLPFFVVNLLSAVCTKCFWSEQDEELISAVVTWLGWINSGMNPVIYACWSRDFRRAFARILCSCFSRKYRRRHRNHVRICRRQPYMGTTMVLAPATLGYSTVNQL
Experiment: aequorin calcium mobilization luminescence in transfected CHO-WTA11 cells
Type: cell-based

## NCCc1ccc(O)c(O)c1 [DA, dopamine]
  EC50: 4.05 nM

Reference: paper PMC13286569 (eLife, 2026)
